Tests used:
[1] = Identification of prototype compounds and metabolites in human plasma after oral K-601 (UPLC-QTOF/MS, EIC peak height); assay type: in vivo
Method: (§1) Chromatographic separation was carried out at 25 °C on a Zorbax RRHD Eclipse Plus C18 column (2.1 × 50 mm, 1.8 μm). The mobile phase consisted of 0.1% formic acid solution (A) and ACN (B) using a gradient elution of 0–5% B at 0–6 min, 5–8% B at 6–15 min, 8–15% B at 15–20 min, 15–20% B at 20–30 min, 20–30% at 30–35 min, 30–35% at 35–45 min, 35–40% at 45–60 min. The flow rate was kept at 0.2 mL/min, and the sample volume injected was set at 5 μL. […] The parameters of operation were as follows: drying gas N2 flow rate, 10.0 L/min; temperature, 330 °C; nebulizer, 35 psig; capillary, 3000 V; skimmer, 60 V; OCT RFV, 250 V. Each sample was analyzed in both the positive and negative modes due to the selective sensitivities to different components of the formulation-providing better information for molecular formulae and structural identification. Mass spectra were recorded across the range m/z 100–1000 with accurate mass measurements.
A total of six healthy male volunteers, ages ranging from 22–47 years took part in this study. Three of whom are Africans and three Chinese. […] None was also on any medication.
Blood samples were withdrawn from subjects at the following time intervals, 0 hour (before taking medication and breakfast), 1, 2, 4, and 6 hours after taking the medication. These blood samples were taken by a qualified phlebotomist in the hospital. Each volunteer took 40 mL of same batch of the medication as a single dose. […] Details of subjects in the pharmacokinetic studies are provided (Table 5).
(§2) All blood samples taken at each time were immediately centrifuged at 13000 rpm for 10 min, and the plasma separated and stored at −80 °C until analysis. Plasma samples were thawed at 37 °C before solid-phase extraction (SPE) treatment for UPLC-QTOF/MS analysis. The sample treatment procedure is schematically presented in Supplementary Figure S3.

[2] = Pharmacokinetics of major prototype compounds in healthy Chinese and African volunteers after single oral K-601 (EIC peak area vs time); assay type: in vivo, human; details: single oral 40 mL K-601; for Tmax: male, human, plasma, po, 40 mL
Method: A total of six healthy male volunteers, ages ranging from 22–47 years took part in this study. Three of whom are Africans and three Chinese. All volunteers avoided the intake of alcohol/alcoholic beverages, coffee/beverages containing coffee for at least 12 hours prior to the study. None was also on any medication. All volunteers also fasted for 12 hours prior to the study and throughout the study period.
Blood samples were withdrawn from subjects at the following time intervals, 0 hour (before taking medication and breakfast), 1, 2, 4, and 6 hours after taking the medication. These blood samples were taken by a qualified phlebotomist in the hospital. Each volunteer took 40 mL of same batch of the medication as a single dose. This study was approved by the Ethics Committee of the First Affiliated Hospital of Nanjing Medical University (2013-SRFA-078) and conducted under the guidelines of the Helsinki Declaration and the International Conference on Harmonization-Good Clinical Practices (ICH-GCP). Details of subjects in the pharmacokinetic studies are provided (Table 5).
as §2
Pharmacokinetic analyses were done using the extracted ion chromatograms (EIC) of the most abundant compounds. The peak areas of derived from the EIC were plotted against time (h).

human intestinal flora = test: Biotransformation and metabolism of K-601 by human fecal flora (anaerobic incubation); assay type: in vitro ADME
Method: as §1

[3] = human plasma after administration of K-601, metabolites
[4] = human plasma after single oral 40 mL K-601, prototype compounds

For 4-O-caffeoylquinic acid [P8], the “Abund. (peak height in the EIC) of prototype compound in plasma” value ([1]; in vivo, po) was 0.04 ×10^4.
For O=C1c2cccc(O)c2C(=O)c2c(O)cc(O)cc21 [M10], the “Abund. (peak height in the EIC) of metabolite in plasma” value [1, 3] was 0.02 ×10^4 and the “Peak abundance (class) of metabolite in plasma” value [1, 3] was “Low (<0.10 × 10^4 as trace constituent, thus low-level)”.
In the case of COc1ccc2c(c1O)-c1c(O)c(OC)cc3c1[C@H](C2)[N+](C)(C)CC3 [P1, Magnoflorine], the “Abund. (peak height in the EIC) of prototype compound in plasma” value ([1]; male, human, in vivo, po) is reported as 6.52 ×10^4 and the “AUC comparison African vs Chinese volunteers (in words)” value [2] is reported as “better in the Chinese volunteers”.
In the case of COc1cc2c(cc1OC)[C@@H]1Cc3ccc(OC)c(OC)c3CN1CC2 [P2, Tetrahydropalmatine], the “Abund. (peak height in the EIC) of prototype compound in plasma” value [1, 4] is reported as 0.03 ×10^4.
With COc1cc2c(cc1O)CC[n+]1cc3c(OC)c(OC)ccc3cc1-2 [P3, Jatrorrhizine] the “Abund. (peak height in the EIC) of prototype compound in plasma” value ([1]; male, human, in vivo, po) was 3.53 ×10^4, the Tmax ([2]; African volunteers) was 4 h and the Tmax ([2]; Chinese volunteers) was 1 h. The “AUC comparison African vs Chinese volunteers (in words)” value [2] was “higher”.
With COc1cc2c(cc1OC)-c1cc3ccc(OC)c(OC)c3c[n+]1CC2 [P4, Palmatine] the “Abund. (peak height in the EIC) of prototype compound in plasma” value [1, 4] was 12.63 ×10^4, the “Peak abundance (class) of prototype compound in plasma” value [1, 4] was “High (> 1.00 × 10^4, defined as major constituent, thus high-level)” and the Tmax ([2]; African volunteers) was 4 h. For the same compound, the Tmax ([2]; Chinese volunteers) was 1 h and the “AUC comparison African vs Chinese volunteers (in words)” value [2] was “higher”.
With COc1ccc2cc3[n+](cc2c1OC)CCc1cc2c(cc1-3)OCO2 [P5, Berberine] the “Abund. (peak height in the EIC) of prototype compound in plasma” value [1, 4] was 50.35 ×10^4, the “Peak abundance (class) of prototype compound in plasma” value [1, 4] was “High (> 1.00 × 10^4, defined as major constituent, thus high-level)” and the Tmax ([2]; African volunteers) was 4 h. For the same compound, the Tmax ([2]; Chinese volunteers) was 1 h and the “AUC comparison African vs Chinese volunteers (in words)” value [2] was “higher”.
For C=C[C@H]1[C@H](O[C@@H]2O[C@H](CO)[C@@H](O)[C@H](O)[C@H]2O)OC=C(C(=O)O)[C@H]1CC(=O)O [P6, Secologanoside], the “Abund. (peak height in the EIC) of prototype compound in plasma” value ([1]; in vivo, po) was 0.02 ×10^4.
With O=C(/C=C/c1ccc(O)c(O)c1)O[C@@H]1C[C@](O)(C(=O)O)C[C@@H](O)[C@H]1O [P7, Chlorogenic acid] the “Abund. (peak height in the EIC) of prototype compound in plasma” value [1, 4] was 0.03 ×10^4.
For O=c1c(O[C@@H]2O[C@H](CO)[C@H](O)[C@H](O)[C@H]2O)c(-c2ccc(O)c(O)c2)oc2cc(O)cc(O)c12 [P10, Hyperoside], the “Abund. (peak height in the EIC) of prototype compound in plasma” value [1, 4] was 0.05 ×10^4.
For Cc1cc(O)c2c(c1)C(=O)c1cc(O)cc(O)c1C2=O [P12, Emodin], the “Abund. (peak height in the EIC) of prototype compound in plasma” value [1, 4] was 0.04 ×10^4.
With COc1c(O[C@@H]2O[C@H](C(=O)O)[C@@H](O)[C@H](O)[C@H]2O)cc(O)c2c(=O)cc(-c3ccccc3)oc12 [P13, Wogonoside] the “Abund. (peak height in the EIC) of prototype compound in plasma” value [1, 4] was 0.42 ×10^4.
For O=C(O)c1cc(O)c2c(c1)C(=O)c1cccc(O)c1C2=O [P14, Rhein], the “Abund. (peak height in the EIC) of prototype compound in plasma” value [1, 4] was 0.62 ×10^4.
With Cc1cc(O)c2c(c1)C(=O)c1cc(C(=O)O)cc(O)c1C2=O [P15, 6-Methyl-rhein] the “Abund. (peak height in the EIC) of prototype compound in plasma” value ([1]; in vivo, po) was 0.06 ×10^4.
With O=C(O)c1cc(O)c(O)c(O)c1O [T1] the “Abund. (peak height in the EIC) of metabolite from human intestinal transformation” value (human intestinal flora) was 0.05 ×10^4.
For Caffeoyl-CH2-O-quinic acid [P9], the “Abund. (peak height in the EIC) of prototype compound in plasma” value [1, 4] was 0.03 ×10^4.
